Where two headings read alike, the source gives them in different places.
Columns and labels:
A375 cells = experiment: 72-hour cell viability assay (Alamar Blue), A375; format: cell-based, human; settings: Homo sapiens; for IC50: 72-hour incubation, Alamar Blue, V600E BRAF
Procedure: (§1) Cell Culture and reagents. All cell lines were grown in a 37° C., 5% CO2, humidified environment, in media containing 1% penicillin/streptomycin. Cell culture conditions are as follows: MDCK cells transfected with MDR1 (or ABCB1) were obtained from the Netherlands Cancer Institute (Amsterdam, The Netherlands) and maintained in DMEM with 10% fetal bovine serum (FBS, Gemini). Traditional cell lines A375, CHL-1, B16F10, and U118MG were grown in DMEM with 10% FBS, SK-MEL-28, U87 and T98G in EMEM with 10% FBS, AM-38 in EMEM with 20% HI-FBS (Gibco), HT29 in McCoy's 5A with 10% FBS, HCT116 in RPMI with 10% FBS. Compounds were dissolved in DMSO (1% final concentration, Sigma-Aldrich) for cell culture studies.
(§2) Cell viability assays. Cells were harvested, seeded in a 96-well plate and allowed to adhere overnight. Compound was added to each well in DMSO (1% final concentration). Cells were incubated for 72 hours before viability was assessed by the Alamar Blue Assay. Raptinal ([…]) was used as a dead control.

P-gp = target: T1, P-gp (Homo sapiens, UniProt P08183); experiment: MDR1-MDCK P-gp transwell bidirectional transport assay; format: in vitro ADME; settings: 10 μM, 90 min; for Papp A→B at 90 min, 10 µM / Papp B→A at 90 min, 10 µM / efflux ratio at 90 min, 10 µM: dog, MDCK-MDR1, MDR1-MDCK; for efflux ratio at 90 min, 10 µM: read-out: ER (efflux ratio) (converted)
T1 construct: host or cells: MDCK (MDR1-MDCK)
T1 sequence (P08183 whole entry): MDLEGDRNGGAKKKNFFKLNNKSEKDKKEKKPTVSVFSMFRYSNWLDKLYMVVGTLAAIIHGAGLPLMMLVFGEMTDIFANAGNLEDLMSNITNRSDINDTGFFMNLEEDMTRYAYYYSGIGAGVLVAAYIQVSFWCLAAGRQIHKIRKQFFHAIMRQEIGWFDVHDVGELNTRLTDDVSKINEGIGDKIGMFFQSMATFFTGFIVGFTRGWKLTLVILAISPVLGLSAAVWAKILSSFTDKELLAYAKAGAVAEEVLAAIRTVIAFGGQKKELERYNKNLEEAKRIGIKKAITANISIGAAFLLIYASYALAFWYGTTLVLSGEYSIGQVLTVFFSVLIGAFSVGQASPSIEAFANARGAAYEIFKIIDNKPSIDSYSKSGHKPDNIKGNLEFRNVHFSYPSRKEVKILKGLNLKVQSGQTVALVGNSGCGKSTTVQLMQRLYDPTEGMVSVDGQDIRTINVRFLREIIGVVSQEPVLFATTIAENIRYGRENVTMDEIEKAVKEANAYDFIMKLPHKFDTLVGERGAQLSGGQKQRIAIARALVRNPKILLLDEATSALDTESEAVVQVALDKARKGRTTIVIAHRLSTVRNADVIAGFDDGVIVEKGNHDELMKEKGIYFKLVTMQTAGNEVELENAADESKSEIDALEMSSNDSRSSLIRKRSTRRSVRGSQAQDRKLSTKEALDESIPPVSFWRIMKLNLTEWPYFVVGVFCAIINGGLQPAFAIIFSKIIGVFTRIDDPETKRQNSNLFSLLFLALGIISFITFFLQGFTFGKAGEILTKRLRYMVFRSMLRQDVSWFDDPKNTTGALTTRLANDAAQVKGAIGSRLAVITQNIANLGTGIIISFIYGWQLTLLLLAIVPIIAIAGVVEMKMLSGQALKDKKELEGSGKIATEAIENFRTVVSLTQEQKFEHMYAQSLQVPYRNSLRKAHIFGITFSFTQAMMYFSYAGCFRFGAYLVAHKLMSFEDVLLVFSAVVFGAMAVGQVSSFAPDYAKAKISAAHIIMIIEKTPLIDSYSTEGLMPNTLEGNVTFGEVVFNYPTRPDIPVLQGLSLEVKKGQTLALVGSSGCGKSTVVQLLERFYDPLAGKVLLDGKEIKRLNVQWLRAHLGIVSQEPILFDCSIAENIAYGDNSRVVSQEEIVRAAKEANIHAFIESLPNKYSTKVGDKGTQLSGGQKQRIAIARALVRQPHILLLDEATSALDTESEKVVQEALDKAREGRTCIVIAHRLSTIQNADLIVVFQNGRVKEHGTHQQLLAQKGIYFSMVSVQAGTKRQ
Procedure: A novel compound collection composed of complex and diverse compounds derived from natural products, termed “Complexity-to-Diversity Collection” was employed. […] The CtD compounds were evaluated by the efflux pump and their permeability using the P-gp transwell assay using adapted and optimized known protocols. Compound transport across epithelial cells overexpressing P-gp from basolateral-to-apical and apical-to-basolateral directions were quantified to calculate permeability and efflux ratio.
P-gp transwell bidirectional transport assays. Unless noted otherwise, the transport assay was performed in triplicate in batches of 16 or 24 test compounds, with each batch containing quinidine as a substrate control and propranolol as a non-substrate control. MDR1-MDCK cells were plated at a density of 300,000 cells/cm^2 onto 96-well Falcon™ Multiwell Insert System with 1 µm pore polycarbonate filters with angled-bottom receiver plates (Coming) and were fed with the cell growth medium on day 2.
The donor solution was prepared by adding 1 mM DMSO stocks of compounds to make the final concentration […], and the receiver solution was prepared with equivalent volume of DMSO to make 1% DMSO in final assay chamber volumes.
After 80-96 hours since seeding, the growth media on both sides was aspirated. To the transwell plate (apical side), 50 μL of receiver and donor solutions prepared on a 96-well plate were added, and it was placed on top of a separate angled-bottom 96-well plate (basolateral side) containing 260 μL of receiver and donor solutions.
Following 90 minutes of incubation at 37° C. with shaking at 90 rpm, 20 μL aliquot of samples were taken from both the donor and receiver chambers, and the apical and basolateral sides. Aliquots of 4 test compounds were pooled for each category: apical-donor, apical-receiver, basolateral-donor, basolateral-receiver. To measure CO and mass balance, initial donor samples from both apical and basolateral side were set aside from the assay plate. Acetonitrile twice the volume of pooled samples was added and mixed thoroughly, and precipitated proteins were removed by centrifugation at 20,000 r.c.f for 10 minutes.
To ascertain the MDCK monolayer integrity, the solution on apical side contained 100 µM Lucifer Yellow (Millipore-Sigma). After 90 minutes of compound transport, Lucifer Yellow concentration in the basal well was measured using SpectraMax M3 (Molecular Devices) set to an excitation wavelength of 430 nm and an emission wavelength of 540 nm.
Samples were analyzed with the 5500 QTRAP LC/MS/MS system (AB Sciex) with a 1200 series HPLC system (Agilent Technologies) including a degasser, an autosampler, and a binary pump. The liquid chromatography separation was performed on an Agilent SB-Aq column (4.6×50 mm, 5 μm) (Agilent Technologies) with mobile phase A (0.1% formic acid in water) and mobile phase B (0.1% formic acid in acetonitrile). The flow rate was 0.3 ml min^−1. The linear gradient was optimized for each compound. The autosampler was set at 5° C. The injection volume was 15 μL. Mass spectra were acquired with both positive electrospray ionization at the ion spray voltage of 5,500 V and negative electrospray ionization at the ion spray voltage of −4,500 V. The source temperature was 450° C. The curtain gas, ion source gas 1, and ion source gas 2 were 33, 50 and 65, respectively. Multiple reaction monitoring was used to quantify metabolites.
Efflux data calculations.

SK-MEL-28 cells = experiment: 72-hour cell viability assay (Alamar Blue), SK-MEL-28; format: cell-based; settings: Homo sapiens, SK-MEL-28, V600E BRAF, melanoma
Procedure: as §1, §2

HCT116 cells = experiment: 72-hour cell viability assay (Alamar Blue), HCT116; format: cell-based; settings: Homo sapiens, HCT-116, WT BRAF
Procedure: as §1, §2

[1] = Blood-brain barrier penetrance, brain and serum levels after single IV injection; format: in vivo; settings: CD-1, mouse, 60 min after single 25 mg/kg IV injection, read-out: brain-to-serum ratio
Procedure: Blood-brain barrier penetrance P-gp in vivo assays. All experimental procedures were reviewed and approved by the University of Illinois Institutional Animal Care and Use Committee (Protocol number: 19191). CD-1 mice were purchased from Charles River and acclimated for 4-7 days before use. Mice were administered elacridar or its vehicle at 2.5 mg/kg via lateral tail vein injection. Thirty-minutes post injection, mice were then treated with compounds at 25 mg/kg intravenously now in the other tail vein. At each time point, mice were sacrificed and blood was collected by lacerating the right auricle with iris scissors. An 18-gauge angiocatheter was inserted through the left ventricle, and all residual circulatory volume was removed by perfusing 0.9% saline solution via an analog peristaltic pump. Brains were harvested from the cranial vault and flash frozen. Blood samples were centrifuged at 13,000 ref for 10 minutes and the supernatant serum was stored at −80° C. until analysis. Brain samples were homogenized in ice-cold methanol and centrifuged first at 2000 ref for three minutes and then 13,000 ref for ten minutes and supernatant and tissue debris were separated and stored at −80° C. The resultant supernatant and serum were analyzed by LC-MS/MS to determine compound concentrations. […] All compounds were administered at 5 mL/kg.

[2] = test system: MAPK signaling (phospho-MEK1/2, phospho-ERK1/2) in A375 cells; experiment: Immunoblotting of MEK1/2 and ERK1/2 phosphorylation, A375; format: cell-based, human; settings: A375, highest concentrations (10 μM), 24 h
Procedure: Immunoblotting. Cells were lysed using RIPA buffer containing phosphatase (BioVision) and protease inhibitor cocktail (Calbiochem). Protein concentration was determined using the BCA assay (Pierce). Cell lysates containing […] of protein were loaded into each lane of 4% to 20% gradient gels (Bio-Rad) for SDS-PAGE. Proteins were transferred onto PDVF membrane for Western blot analysis. Blots were blocked with BSA for one hour followed by incubation with primary antibody overnight (dilution according to manufacturer's protocols), and then secondary antibody was incubated for one hour. Blots were then imaged with a ChemiDoc Touch (Bio-Rad) after incubation with SuperSignal West Pico Solution (ThermoFischer) following manufacturer's protocols. All antibodies were purchased from Cell Signaling Technology: p-ERK (9101S), ERK (4695S), p-MEK (9121S), MEK (8727S), vinculin (13901S) Rabbit IgG-HRP (7074), […] (5125).

HT29 cells = experiment: 72-hour cell viability assay (Alamar Blue), HT29; format: cell-based; settings: Homo sapiens, HT-29, V600E BRAF, colon
Procedure: as §1, §2

AM-38 cells = experiment: 72-hour cell viability assay (Alamar Blue), AM-38; format: cell-based; settings: Homo sapiens, AM-38, V600E BRAF, glioma
Procedure: as §1, §2

CHL-1 cells = experiment: 72-hour cell viability assay (Alamar Blue), CHL-1; format: cell-based; settings: Homo sapiens, CHL-1, WT BRAF
Procedure: as §1, §2

B16F10 cells = experiment: 72-hour cell viability assay (Alamar Blue), B16F10; format: cell-based; settings: Mus musculus, B16-F10, WT BRAF, read-out: B16F10 IC50
Procedure: as §1, §2

T98G cells = experiment: 72-hour cell viability assay (Alamar Blue), T98G; format: cell-based; settings: Homo sapiens, T98G, WT BRAF, read-out: T98G IC50
Procedure: as §1, §2

U118MG cells = experiment: 72-hour cell viability assay (Alamar Blue), U118MG; format: cell-based; settings: Homo sapiens, U-118-MG, WT BRAF
Procedure: as §1, §2

U87 cells = experiment: 72-hour cell viability assay (Alamar Blue), U87; format: cell-based; settings: Homo sapiens, WT BRAF
Procedure: as §1, §2

[3] = colon, read-out: HCT116 (WT) IC50

SMILES	IC50 (A375 cells; A-375, 72 h)	Papp A→B at 90 min, 10 µM (P-gp)	Papp B→A at 90 min, 10 µM (P-gp)	IC50 (SK-MEL-28 cells)	IC50 (HCT116 cells; [3])	also measured
CC(C)(C)c1nc(-c2c(F)ccc(NS(=O)(=O)c3cc(C(F)(F)F)ccc3C(F)(F)F)c2F)c(-c2ccnc(NCCCCC(=O)O)n2)s1 [6-150, 5-((4-(4-(3-((2,5-bis(trifluoromethyl)phenyl)sulfonamido)-2,6-difluorophenyl)-2-(tert-butyl)thiazol-5-yl)pyrimidin-2-yl)amino)pentanoic acid]	> 50000 nM	0.518 ×10⁻⁶ cm/s	0.398 ± 0.149 ×10⁻⁶ cm/s			efflux ratio at 90 min, 10 µM (P-gp): 0.6
CC(C)(C)c1nc(-c2cccc(NS(=O)(=O)c3cc(C(F)(F)F)ccc3C(F)(F)F)c2F)c(-c2ccnc(NCCCCC(=O)O)n2)s1 [6-173, 5-((4-(4-(3-((2,5-bis(trifluoromethyl)phenyl)sulfonamido)-2-fluorophenyl)-2-(tert-butyl)thiazol-5-yl)pyrimidin-2-yl)amino)pentanoic acid]	> 50000 nM		0.46 ± 0.086 ×10⁻⁶ cm/s			
CC(C)(C)c1nc(-c2c(F)ccc(NS(=O)(=O)c3ccc(F)cc3C(F)(F)F)c2F)c(-c2ccnc(NCCCCC(=O)O)n2)s1 [6-179, 5-((4-(2-(tert-butyl)-4-(2,6-difluoro-3-((4-fluoro-2-(trifluoromethyl)phenyl)sulfonamido)phenyl)thiazol-5-yl)pyrimidin-2-yl)amino)pentanoic acid]	14700 ± 6160 nM		1.79 ± 0.064 ×10⁻⁶ cm/s			
CC(C)(C)c1nc(-c2cccc(NS(=O)(=O)c3c(F)cccc3F)c2F)c(-c2ccnc(CCCC(=O)O)n2)s1 [6-191, 4-(4-(2-(tert-butyl)-4-(3-((2,6-difluorophenyl)sulfonamido)-2-fluorophenyl)thiazol-5-yl)pyrimidin-2-yl)butanoic acid]	558 ± 118 nM		1.45 ± 0.172 ×10⁻⁶ cm/s			Emax (A375 cells; A-375, A375, 72-hour incubation): 60%
CCCS(=O)(=O)Nc1cc(Cl)cc(-c2nc(C(C)(C)C)sc2-c2ccnc(NCC(C)CC(=O)O)n2)c1F (stereo not shown) [6-265, 4-((4-(2-(tert-butyl)-4-(5-chloro-2-fluoro-3-(propylsulfonamido)phenyl)thiazol-5-yl)pyrimidin-2-yl)amino)-3-methylbutanoic acid]	113 ± 10.7 nM			124 ± 4.86 nM	8840 nM	
CCCS(=O)(=O)Nc1cc(Cl)cc(-c2nc(C(C)(C)C)sc2-c2ccnc(NCC(C)C(F)C(=O)O)n2)c1F (stereo not shown) [8-41, 4-((4-(2-(tert-butyl)-4-(5-chloro-2-fluoro-3-(propylsulfonamido)phenyl)thiazol-5-yl)pyrimidin-2-yl)amino)-2-fluoro-3-methylbutanoic acid]	301 ± 39.9 nM			246 ± 8.73 nM	> 1000 nM	
CCCS(=O)(=O)Nc1cc(Cl)cc(-c2nc(C(C)(C)C)sc2-c2ccnc(NCC[C@@H](C)CC(=O)O)n2)c1F [8-43, (R)-5-((4-(2-(tert-butyl)-4-(5-chloro-2-fluoro-3-(propylsulfonamido)phenyl)thiazol-5-yl)pyrimidin-2-yl)amino)-3-methylpentanoic acid]	38.2 ± 3.29 nM			51.1 ± 1.35 nM	5130 ± 382 nM	
COC(=O)N[C@@H](C)CNc1nccc(-c2cn(C(C)C)nc2-c2cc(Cl)cc(NS(C)(=O)=O)c2F)n1 [Encorafenib, reference compound]	5.17 ± 0.412 nM	1.32 ± 0.602 ×10⁻⁶ cm/s	14.7 ± 1.8 ×10⁻⁶ cm/s			ER (efflux ratio) (P-gp; MDR1-MDCK): 21.8; Kp at 60 min [1]: 0.0014 to 0.0069
CCCS(=O)(=O)Nc1ccc(F)c(C(=O)c2c[nH]c3ncc(Cl)cc23)c1F [PLX4720, reference compound]						Kp at 60 min [1]: 0.0014 to 0.0069; inhibition of ERK1/2 phosphorylation after 24 h [2]: diminished inhibition
CCCS(=O)(=O)Nc1ccc(F)c(C(=O)c2c[nH]c3ncc(-c4ccc(Cl)cc4)cc23)c1F [Vemurafenib, reference compound]		0.667 ± 0.11 ×10⁻⁶ cm/s	3.81 ± 0.063 ×10⁻⁶ cm/s		27000 nM	IC50 (A375 cells; A-375): 331 ± 93 nM; IC50 (HT29 cells): 240 ± 61.7 nM; IC50 (AM-38 cells): 344 ± 59.3 nM; IC50 (HCT116 cells; read-out: HCT116 IC50): > 10000 nM; IC50 (CHL-1 cells; melanoma, read-out: CHL-1 (WT) IC50): > 10000 nM; IC50 (CHL-1 cells; read-out: CHL-1 IC50): > 10000 nM; IC50 (B16F10 cells): > 10000 nM; IC50 (T98G cells): > 10000 nM; IC50 (U118MG cells; glioma, read-out: U118MG (WT) IC50): > 10000 nM; IC50 (U118MG cells; read-out: U118MG IC50): > 10000 nM; IC50 (U87 cells; U-87 MG, read-out: U87 IC50): > 10000 nM; IC50 (U87 cells; glioma, read-out: U87 (WT) IC50): > 10000 nM; efflux ratio at 90 min, 10 µM (P-gp): 5.92 ± 0.77

Reference: patent US20250230151A1, “COMPOUNDS FOR CANCERS DRIVEN BY BRAF MUTATION” (THE BOARD OF TRUSTEES OF THE UNIVERSITY OF ILLINOIS, priority 2021, published 2025)
